Test results from patent publication US20130315843A1, “COMPOSITION FOR REDUCTION OF TRPA1 AND TRPV1 SENSATIONS” (priority 2012, published 2013).
Values joined by “and” are separate entries in the source; they are usually repeats but may differ in a detail not shown here. Equal entries are not always repeated. Where two headings read alike, the source gives them in different places. Each block holds one compound with its values, some of them ahead of it.

How the values were obtained:
[1] = concentration where the cooling effect can be clearly recognized; cited from earlier work
human TRPV1 [2] = molecular target: T1, human TRPV1 (Homo sapiens, UniProt Q8NER1); conditions: for percent hydrogen peroxide activation of TRPV1 compared to control agonist: control 350 nM capsaicin
Experimental: (§1) Cells were detached with addition of 10 ml of PBS (phosphate buffered saline) by hand shaking gently. Cells were transferred to a 50 ml tube and centrifuged at 850 rpm for 3 minutes to remove PBS.
(§2) The pelleted cells were re-suspended in 10 ml assay buffer and 90 μl aliquots (˜50,000 cells) per well delivered to a 96-well assay plate containing 10 μl of test compounds (1 mM in assay buffer, final concentration 100 μM) or buffer control and incubated at room temperature for 30 minutes.

human TRPA1 = human TRPA1 (Homo sapiens, UniProt O75762); experiment: FLIPR intracellular Ca2+ assay, direct (agonist) effect on TRPA1; format: cell-based; design: expressed in transfected cells; conditions: for percent hydrogen peroxide activation of TRPA1 compared to control agonist: control 50 μM AITC
Experimental: After centrifugation, a pellet of cells was formed in the bottom of the tube separating them from the supernatant solution.
as §2

human TRPV1 [3] = molecular target: T1, human TRPV1; experiment: FLIPR Ca2+ assay, reduction of capsaicin activation of TRPV1; format: cell-based; design: expressed in transfected cells; conditions: with compound, Dose 4000, 350 nM Capsaicin
Experimental: as §1
The pelleted cells were re-suspended in 10 ml assay buffer and 90 μl aliquots (˜50,000 cells) per well delivered to a 96-well assay plate containing 10 μl of test compounds ([…]) or buffer control and incubated at room temperature for 30 minutes.

human TRPV1 [4] = molecular target: T1, human TRPV1; experiment: FLIPR Ca2+ assay, reduction of hydrogen peroxide activation of TRPV1; format: cell-based; design: expressed in transfected cells; conditions: for inhibition at 400 µM: antagonist 400 μM against 500 μM hydrogen peroxide; for Ca++ counts: with compound, Dose 4000, 500 uM H2O2

Chain of human TRPA1 (O75762 whole entry): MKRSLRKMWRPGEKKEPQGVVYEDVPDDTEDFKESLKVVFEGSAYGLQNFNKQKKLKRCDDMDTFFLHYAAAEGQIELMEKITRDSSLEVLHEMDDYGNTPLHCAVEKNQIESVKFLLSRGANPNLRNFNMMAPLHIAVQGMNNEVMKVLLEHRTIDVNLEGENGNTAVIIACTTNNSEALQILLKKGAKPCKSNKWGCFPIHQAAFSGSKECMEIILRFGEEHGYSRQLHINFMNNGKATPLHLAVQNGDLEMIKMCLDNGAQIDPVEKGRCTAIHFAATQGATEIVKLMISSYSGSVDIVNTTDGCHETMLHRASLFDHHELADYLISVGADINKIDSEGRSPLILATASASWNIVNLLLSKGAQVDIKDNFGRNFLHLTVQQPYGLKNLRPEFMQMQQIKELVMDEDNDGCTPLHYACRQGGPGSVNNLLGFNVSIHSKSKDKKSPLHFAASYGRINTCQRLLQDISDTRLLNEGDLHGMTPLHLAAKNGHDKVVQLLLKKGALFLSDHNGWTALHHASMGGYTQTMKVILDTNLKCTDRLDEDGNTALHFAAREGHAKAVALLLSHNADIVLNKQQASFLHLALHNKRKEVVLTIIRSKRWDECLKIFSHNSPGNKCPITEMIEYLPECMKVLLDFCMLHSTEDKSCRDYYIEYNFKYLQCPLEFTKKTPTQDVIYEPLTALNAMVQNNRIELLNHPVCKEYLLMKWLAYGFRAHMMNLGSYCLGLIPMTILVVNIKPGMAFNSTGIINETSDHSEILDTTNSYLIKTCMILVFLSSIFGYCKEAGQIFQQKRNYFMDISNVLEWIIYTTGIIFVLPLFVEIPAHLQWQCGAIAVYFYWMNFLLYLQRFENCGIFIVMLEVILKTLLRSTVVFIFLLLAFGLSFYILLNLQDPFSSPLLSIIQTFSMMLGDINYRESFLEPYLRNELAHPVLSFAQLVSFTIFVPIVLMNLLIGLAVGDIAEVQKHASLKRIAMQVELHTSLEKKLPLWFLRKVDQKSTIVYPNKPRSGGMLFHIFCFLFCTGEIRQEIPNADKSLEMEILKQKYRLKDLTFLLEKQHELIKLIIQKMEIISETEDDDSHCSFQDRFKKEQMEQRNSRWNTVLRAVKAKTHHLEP
T1 sequence (Q8NER1 whole entry): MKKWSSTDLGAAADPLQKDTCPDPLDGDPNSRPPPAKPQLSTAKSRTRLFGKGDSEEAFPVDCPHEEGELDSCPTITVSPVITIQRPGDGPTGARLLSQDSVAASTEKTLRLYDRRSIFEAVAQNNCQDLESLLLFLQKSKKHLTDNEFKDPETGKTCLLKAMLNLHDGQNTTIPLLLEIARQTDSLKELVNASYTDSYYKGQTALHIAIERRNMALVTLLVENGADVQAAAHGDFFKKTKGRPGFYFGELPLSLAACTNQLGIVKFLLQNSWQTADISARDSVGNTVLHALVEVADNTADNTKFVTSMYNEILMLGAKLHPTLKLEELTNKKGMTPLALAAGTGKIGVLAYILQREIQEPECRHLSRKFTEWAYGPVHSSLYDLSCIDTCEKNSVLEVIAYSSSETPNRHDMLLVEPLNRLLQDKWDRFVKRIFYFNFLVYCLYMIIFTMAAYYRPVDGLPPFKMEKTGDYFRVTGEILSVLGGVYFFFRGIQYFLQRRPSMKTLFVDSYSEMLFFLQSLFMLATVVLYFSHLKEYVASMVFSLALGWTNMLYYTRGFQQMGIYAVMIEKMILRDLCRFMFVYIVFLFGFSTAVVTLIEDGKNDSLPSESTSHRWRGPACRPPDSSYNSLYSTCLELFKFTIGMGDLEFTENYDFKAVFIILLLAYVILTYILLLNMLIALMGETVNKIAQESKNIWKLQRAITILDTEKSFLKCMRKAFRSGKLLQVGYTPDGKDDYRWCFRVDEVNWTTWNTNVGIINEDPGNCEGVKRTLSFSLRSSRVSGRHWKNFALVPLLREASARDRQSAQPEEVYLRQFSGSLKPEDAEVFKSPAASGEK

SMILES: CC(C)[C@@H]1CC[C@@H](C)C[C@@H]1O [1-neomenthol]
cooling threshold [1]: about 3,000 ppb

Ca2+ Count, TRPV1 (human TRPV1 [2]; control agonist Capsaicin 350 nM): 16204 Count
SMILES: COc1cc(CNC(=O)CCCC/C=C/C(C)C)ccc1O [Capsaicin]

SMILES: OO [H2O2, hydrogen peroxide]
percent hydrogen peroxide activation of TRPV1 compared to control agonist (human TRPV1 [2]; H2O2 1 μM): 1.51%
percent hydrogen peroxide activation of TRPV1 compared to control agonist (human TRPV1 [2]; H2O2 10 μM): 3.10%
percent hydrogen peroxide activation of TRPV1 compared to control agonist (human TRPV1 [2]; H2O2 100 μM): 17.45%
percent hydrogen peroxide activation of TRPV1 compared to control agonist (human TRPV1 [2]; H2O2 200 μM): 21.18%
percent hydrogen peroxide activation of TRPV1 compared to control agonist (human TRPV1 [2]; H2O2 500 μM): 30.21%
percent hydrogen peroxide activation of TRPV1 compared to control agonist (human TRPV1 [2]; H2O2 1 mM): 41.13%
percent hydrogen peroxide activation of TRPV1 compared to control agonist (human TRPV1 [2]; H2O2 10 mM): 62.81%
percent hydrogen peroxide activation of TRPV1 compared to control agonist (human TRPV1 [2]; H2O2 100 mM): 209.29%
percent hydrogen peroxide activation of TRPA1 compared to control agonist (human TRPA1; H2O2 1 μM): 1.4%
percent hydrogen peroxide activation of TRPA1 compared to control agonist (human TRPA1; H2O2 10 μM): 9.6%
percent hydrogen peroxide activation of TRPA1 compared to control agonist (human TRPA1; H2O2 100 μM): 91.4%
Average Ca++ Counts (human TRPA1; H2O2 200 μM alone, control of each Set 1-4): 5881.5 Counts and 8721.8 Counts and 10592.2 Counts and 7043.6 Counts
percent hydrogen peroxide activation of TRPA1 compared to control agonist (human TRPA1; H2O2 200 μM): 111.7%
percent hydrogen peroxide activation of TRPA1 compared to control agonist (human TRPA1; H2O2 500 μM): 129.1%
percent hydrogen peroxide activation of TRPA1 compared to control agonist (human TRPA1; H2O2 1 mM): 123.4%
percent hydrogen peroxide activation of TRPA1 compared to control agonist (human TRPA1; H2O2 10 mM): 101.3%
percent hydrogen peroxide activation of TRPA1 compared to control agonist (human TRPA1; H2O2 100 mM): 296.7%

SMILES: CC(C)[C@@H]1CC[C@@H](C)C[C@H]1O [L-menthol]
cooling threshold [1]: about 800 ppb

Ca++ counts (human TRPV1 [3]): 10922
effect on TRPA1 receptor, in words (agonist / enhancer) (human TRPA1): TRPA1 agonists
inhibition at 400 µM (human TRPV1 [4]): 60%
Ca++ counts (human TRPV1 [4]): 737
SMILES: CCC(=O)OCCOc1ccccc1 [Phenoxyethyl Propionate]
reduction of hydrogen peroxide activation of TRPV1, in words (human TRPV1 [4]): reduce hydrogen peroxide activation of TRPV1

Ca++ counts (human TRPV1 [3]): 10804
effect on TRPA1 receptor, in words (agonist / enhancer) (human TRPA1): enhancer of TRPA1
inhibition at 400 µM (human TRPV1 [4]): 63%
Ca++ counts (human TRPV1 [4]): 682
SMILES: CC(C)C(=O)OCc1ccc2c(c1)OCO2 [Piperonyl Isobutyrate]
reduction of hydrogen peroxide activation of TRPV1, in words (human TRPV1 [4]): reduces hydrogen peroxide activation of TRPV1

SMILES: CC(C)[C@@H]1CC[C@@H](C)C[C@@H]1O [d-neomenthol]
cooling threshold [1]: about 25,000 ppb
